Experimental data as given in US20210255193A1, “LYSINE REACTIVE PROBES AND USES THEREOF” (The Scripps Research Institute, priority 2017, published 2021).
Values belong to the compound of their own block, whether it stands above or below them.

How the values were obtained:
[1] = target: T1, ENOPH1 Enolase-phosphatase E1 (Homo sapiens, UniProt Q9UHY7); test: competitive isoTOP-ABPP; type: binding; conditions: for isoTOP-ABPP reactivity ratio at lysine Q9UHY7_K111 / isoTOP-ABPP ratio (R) at liganded lysine Q9UHY7_K111: 50 uM, in vitro; for isoTOP-ABPP reactivity ratio at lysine Q9UHY7_K111: 231 sol; for isoTOP-ABPP ratio (R) at liganded lysine Q9UHY7_K111: sol, 231
T1 construct: endogenous in cells; host or cells: MDA-MB-231 (soluble fraction of lysate)
T1 sequence (Q9UHY7 whole entry): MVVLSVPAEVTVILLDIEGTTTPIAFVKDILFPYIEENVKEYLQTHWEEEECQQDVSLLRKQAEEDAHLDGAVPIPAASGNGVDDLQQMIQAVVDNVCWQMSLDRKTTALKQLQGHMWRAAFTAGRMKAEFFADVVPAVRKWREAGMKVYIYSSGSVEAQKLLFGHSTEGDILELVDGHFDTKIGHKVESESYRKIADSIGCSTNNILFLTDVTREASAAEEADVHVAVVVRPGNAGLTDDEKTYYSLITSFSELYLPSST
How it was run: (§1)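 Cell lysate (0.5 ml) was pre-treated with fragment, 50 μM for activated esters or 100 μM for guanidinylating agents, versus DMSO, then labeled 1 h at ambient temperature with 0.1 mM STP-alkyne. Light/heavy TEV tags attached by CuAAC; R = DMSO/compound MS1 peak-area ratio, median per lysine.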

[2] = target: T2, PFKL 6-phosphofructokinase, liver type (Homo sapiens, UniProt P17858); test: competitive isoTOP-ABPP; type: binding; conditions: for isoTOP-ABPP reactivity ratio at lysine P17858_K315 / isoTOP-ABPP reactivity ratio at lysine P17858_K677 / isoTOP-ABPP reactivity ratio at lysine P17858_K715 / isoTOP-ABPP ratio (R) at liganded lysine P17858_K677 / isoTOP-ABPP ratio (R) at liganded lysine P17858_K715 / isoTOP-ABPP ratio (R) at liganded lysine P17858_K315: 50 uM, in vitro; for isoTOP-ABPP reactivity ratio at lysine P17858_K315 / isoTOP-ABPP reactivity ratio at lysine P17858_K677 / isoTOP-ABPP reactivity ratio at lysine P17858_K715: 231 sol; for isoTOP-ABPP ratio (R) at liganded lysine P17858_K677 / isoTOP-ABPP ratio (R) at liganded lysine P17858_K715 / isoTOP-ABPP ratio (R) at liganded lysine P17858_K315: sol, 231; for isoTOP-ABPP ratio, lysine P17858_K677: possible other lysine P17858_K681; for isoTOP-ABPP ratio, lysine P17858_K715: possible other lysine P17858_K714
T2 construct: isoTOP-ABPP experiments performed in cell lysates (in vitro); endogenous in cells; host or cells: soluble proteome of human cancer cell lines (MDA-MB-231; Ramos and Jurkat also prepared)
T2 sequence (P17858 1-780): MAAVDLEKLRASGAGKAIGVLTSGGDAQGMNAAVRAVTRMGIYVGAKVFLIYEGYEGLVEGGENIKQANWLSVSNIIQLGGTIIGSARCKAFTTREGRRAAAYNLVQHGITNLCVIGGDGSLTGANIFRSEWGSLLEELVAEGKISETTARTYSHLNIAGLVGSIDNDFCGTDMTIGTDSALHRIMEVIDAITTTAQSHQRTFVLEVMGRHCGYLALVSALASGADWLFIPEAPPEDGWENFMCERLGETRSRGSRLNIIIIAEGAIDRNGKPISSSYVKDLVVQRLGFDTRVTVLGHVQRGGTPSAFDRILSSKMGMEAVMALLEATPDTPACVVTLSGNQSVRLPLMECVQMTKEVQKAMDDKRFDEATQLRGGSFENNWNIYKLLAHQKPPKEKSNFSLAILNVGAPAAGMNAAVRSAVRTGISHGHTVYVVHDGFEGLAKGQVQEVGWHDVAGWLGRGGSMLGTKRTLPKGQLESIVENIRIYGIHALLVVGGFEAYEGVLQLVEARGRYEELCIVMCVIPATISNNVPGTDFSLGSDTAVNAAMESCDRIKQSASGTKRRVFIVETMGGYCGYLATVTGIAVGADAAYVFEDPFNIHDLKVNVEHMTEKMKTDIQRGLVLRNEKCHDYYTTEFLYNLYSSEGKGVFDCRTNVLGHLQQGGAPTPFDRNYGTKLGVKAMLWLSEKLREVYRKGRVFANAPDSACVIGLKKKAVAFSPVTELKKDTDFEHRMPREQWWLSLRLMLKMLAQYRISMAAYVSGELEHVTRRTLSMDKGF
How it was run: as §1

SMILES: O=C(CCc1cn(-c2ccccc2)nc1-c1ccccc1)Oc1ccc([N+](=O)[O-])cc1[N+](=O)[O-] [fragment 29, 2,4-Dinitrophenyl 3-(1,3-diphenyl-1H-pyrazol-4-yl)propanoate]
isoTOP-ABPP reactivity ratio at lysine Q9UHY7_K111 [1]: 0.8
isoTOP-ABPP reactivity ratio at lysine P17858_K315 [2]: 0.8
isoTOP-ABPP reactivity ratio at lysine P17858_K677 [2]: 2.0
isoTOP-ABPP reactivity ratio at lysine P17858_K715 [2]: 6.8

SMILES: O=C(Oc1ccc([N+](=O)[O-])cc1[N+](=O)[O-])C(c1ccccc1)c1ccccc1 [fragment 30, 2,4-Dinitrophenyl 2,2-diphenylacetate]
isoTOP-ABPP reactivity ratio at lysine Q9UHY7_K111 [1]: 0.8
isoTOP-ABPP reactivity ratio at lysine P17858_K315 [2]: 4.9
isoTOP-ABPP reactivity ratio at lysine P17858_K677 [2]: 20.0

SMILES: Cn1cc(CC(=O)Oc2ccc([N+](=O)[O-])cc2[N+](=O)[O-])c2ccccc21 [fragment 32, 2,4-Dinitrophenyl 2-(1-methyl-1H-indol-3-yl)acetate]
isoTOP-ABPP reactivity ratio at lysine Q9UHY7_K111 [1]: 1.3
isoTOP-ABPP reactivity ratio at lysine P17858_K315 [2]: 20.0
isoTOP-ABPP reactivity ratio at lysine P17858_K677 [2]: 11.9
isoTOP-ABPP reactivity ratio at lysine P17858_K715 [2]: 7.7

SMILES: COc1cc(CCC(=O)Oc2ccc([N+](=O)[O-])cc2[N+](=O)[O-])cc(OC)c1OC [fragment 33, 2,4-Dinitrophenyl 3-(3,4,5-trimethoxyphenyl)propanoate]
isoTOP-ABPP reactivity ratio at lysine Q9UHY7_K111 [1]: 0.9
isoTOP-ABPP reactivity ratio at lysine P17858_K315 [2]: 0.8
isoTOP-ABPP reactivity ratio at lysine P17858_K677 [2]: 2.0
isoTOP-ABPP reactivity ratio at lysine P17858_K715 [2]: 1.1

SMILES: O=C(Oc1ccc([N+](=O)[O-])cc1[N+](=O)[O-])C1CCN(C(=O)OCc2ccccc2)CC1 [fragment 34, 1-Benzyl 4-(2,4-dinitrophenyl) piperidine-1,4-dicarboxylate]
isoTOP-ABPP ratio (R) at liganded lysine Q9UHY7_K111 [1]: 0.9
isoTOP-ABPP ratio (R) at liganded lysine P17858_K677 [2]: 2.8
isoTOP-ABPP ratio (R) at liganded lysine P17858_K715 [2]: 1.3

SMILES: O=C(Oc1ccc([N+](=O)[O-])cc1[N+](=O)[O-])c1ccc2ccccc2n1 [fragment 35, 2,4-Dinitrophenyl quinoline-2-carboxylate]
isoTOP-ABPP ratio (R) at liganded lysine Q9UHY7_K111 [1]: 1.0
isoTOP-ABPP ratio (R) at liganded lysine P17858_K677 [2]: 1.5
isoTOP-ABPP ratio (R) at liganded lysine P17858_K715 [2]: 1.3

SMILES: O=C(CCc1coc2cc(F)ccc2c1=O)Oc1ccc([N+](=O)[O-])cc1[N+](=O)[O-] [fragment 36, 2,4-Dinitrophenyl 3-(7-fluoro-4-oxo-4H-chromen-3-yl)propanoate]
isoTOP-ABPP ratio (R) at liganded lysine Q9UHY7_K111 [1]: 0.9
isoTOP-ABPP ratio (R) at liganded lysine P17858_K677 [2]: 20.0
isoTOP-ABPP ratio (R) at liganded lysine P17858_K715 [2]: 20.0

SMILES: O=C(Oc1ccc([N+](=O)[O-])cc1[N+](=O)[O-])c1ccc(-c2ccccc2)cc1 [fragment 37, 2,4-Dinitrophenyl [1,1′-biphenyl]-4-carboxylate]
isoTOP-ABPP ratio (R) at liganded lysine Q9UHY7_K111 [1]: 0.9
isoTOP-ABPP ratio (R) at liganded lysine P17858_K315 [2]: 1.3
isoTOP-ABPP ratio (R) at liganded lysine P17858_K677 [2]: 1.1
isoTOP-ABPP ratio (R) at liganded lysine P17858_K715 [2]: 1.1

SMILES: O=C(CC12CC3CC(CC(C3)C1)C2)Oc1ccc([N+](=O)[O-])cc1[N+](=O)[O-] [fragment 38, 2,4-Dinitrophenyl 2-(adamantan-1-yl)acetate]
isoTOP-ABPP ratio (R) at liganded lysine Q9UHY7_K111 [1]: 1.1
isoTOP-ABPP ratio (R) at liganded lysine P17858_K315 [2]: 0.4
isoTOP-ABPP ratio (R) at liganded lysine P17858_K677 [2]: 1.3
isoTOP-ABPP ratio (R) at liganded lysine P17858_K715 [2]: 20.0

SMILES: O=C(Oc1ccc([N+](=O)[O-])cc1[N+](=O)[O-])c1ccc(Oc2ccccc2)cc1 [fragment 39, 2,4-Dinitrophenyl 4-phenoxybenzoate]
isoTOP-ABPP ratio (R) at liganded lysine Q9UHY7_K111 [1]: 0.8
isoTOP-ABPP ratio (R) at liganded lysine P17858_K677 [2]: 1.3
isoTOP-ABPP ratio (R) at liganded lysine P17858_K715 [2]: 0.6

SMILES: O=C(Oc1ccc([N+](=O)[O-])cc1[N+](=O)[O-])c1ccccc1Nc1cccc(C(F)(F)F)c1 [fragment 40, 2,4-Dinitrophenyl 2-((3-(trifluoromethyl)phenyl)amino)benzoate]
isoTOP-ABPP ratio (R) at liganded lysine Q9UHY7_K111 [1]: 0.7
isoTOP-ABPP ratio (R) at liganded lysine P17858_K677 [2]: 0.9
isoTOP-ABPP ratio (R) at liganded lysine P17858_K715 [2]: 1.1

SMILES: CC(C)(C)OC(=O)NCCCC(=O)Oc1ccc([N+](=O)[O-])cc1[N+](=O)[O-] [fragment 41, 2,4-Dinitrophenyl 4-((tert-butoxycarbonyl)amino)butanoate]
isoTOP-ABPP ratio (R) at liganded lysine Q9UHY7_K111 [1]: 1.1
isoTOP-ABPP ratio (R) at liganded lysine P17858_K315 [2]: 2.3
isoTOP-ABPP ratio (R) at liganded lysine P17858_K677 [2]: 5.6
isoTOP-ABPP ratio (R) at liganded lysine P17858_K715 [2]: 2.0

SMILES: CC(=O)Oc1ccc([N+](=O)[O-])cc1[N+](=O)[O-] [fragment 43, 2,4-Dinitrophenyl acetate]
isoTOP-ABPP ratio (R) at liganded lysine Q9UHY7_K111 [1]: 0.9
isoTOP-ABPP ratio (R) at liganded lysine P17858_K677 [2]: 3.2
isoTOP-ABPP ratio (R) at liganded lysine P17858_K715 [2]: 1.3

SMILES: N#Cc1ccc(C(=O)Oc2ccc([N+](=O)[O-])cc2[N+](=O)[O-])cc1 [fragment 44, 2,4-Dinitrophenyl 4-cyanobenzoate]
isoTOP-ABPP ratio, lysine Q9UHY7_K111 ([1]; 50 uM_231_sol_in vitro): 0.9
isoTOP-ABPP ratio, lysine P17858_K315 ([2]; 50 uM_231_sol_in vitro): 0.8
isoTOP-ABPP ratio, lysine P17858_K677 ([2]; 50 uM_231_sol_in vitro): 1.7
isoTOP-ABPP ratio, lysine P17858_K715 ([2]; 50 uM_231_sol_in vitro): 1.8

SMILES: O=C(CCc1ccc2c(c1)OCO2)Oc1ccc([N+](=O)[O-])cc1[N+](=O)[O-] [fragment 45, 2,4-Dinitrophenyl 3-(benzo[d][1,3]dioxol-5-yl)propanoate]
isoTOP-ABPP ratio, lysine Q9UHY7_K111 ([1]; 50 uM_231_sol_in vitro): 1.1
isoTOP-ABPP ratio, lysine P17858_K315 ([2]; 50 uM_231_sol_in vitro): 1.8
isoTOP-ABPP ratio, lysine P17858_K677 ([2]; 50 uM_231_sol_in vitro): 2.9
isoTOP-ABPP ratio, lysine P17858_K715 ([2]; 50 uM_231_sol_in vitro): 10.9

SMILES: O=C(ON1C(=O)CCC1=O)c1cc(C(F)(F)F)cc(C(F)(F)F)c1 [fragment 46, 3,5-Bis(trifluoromethyl)benzoic acid NHS ester]
isoTOP-ABPP ratio, lysine Q9UHY7_K111 ([1]; 50 uM_231_sol_in vitro): 1.1
isoTOP-ABPP ratio, lysine P17858_K315 ([2]; 50 uM_231_sol_in vitro): 0.6
isoTOP-ABPP ratio, lysine P17858_K677 ([2]; 50 uM_231_sol_in vitro): 1.4
isoTOP-ABPP ratio, lysine P17858_K715 ([2]; 50 uM_231_sol_in vitro): 0.8

isoTOP-ABPP ratio, lysine Q9UHY7_K111 ([1]; 50 uM_231_sol_in vitro): 7.8
isoTOP-ABPP ratio, lysine P17858_K315 ([2]; 50 uM_231_sol_in vitro): 1.0
isoTOP-ABPP ratio, lysine P17858_K677 ([2]; 50 uM_231_sol_in vitro): 1.0
isoTOP-ABPP ratio, lysine P17858_K715 ([2]; 50 uM_231_sol_in vitro): 1.0
SMILES: O=C(Oc1c(F)c(F)c(C(F)(F)F)c(F)c1F)c1cc(C(F)(F)F)cc(C(F)(F)F)c1 [fragment 47, 2,3,5,6-Tetrafluoro-4-(trifluoromethyl)phenyl 3,5-bis(trifluoromethyl)benzoate]

isoTOP-ABPP ratio, lysine Q9UHY7_K111 ([1]; 50 uM_231_sol_in vitro): 0.9
isoTOP-ABPP ratio, lysine P17858_K315 ([2]; 50 uM_231_sol_in vitro): 0.7
isoTOP-ABPP ratio, lysine P17858_K677 ([2]; 50 uM_231_sol_in vitro): 0.9
isoTOP-ABPP ratio, lysine P17858_K715 ([2]; 50 uM_231_sol_in vitro): 1.0
SMILES: O=C(Oc1c(F)c(F)cc(F)c1F)c1cc(C(F)(F)F)cc(C(F)(F)F)c1 [fragment 48, 2,3,5,6-Tetrafluorophenyl 3,5-bis(trifluoromethyl)benzoate]

isoTOP-ABPP ratio, lysine Q9UHY7_K111 ([1]; 100 uM_231_sol_in vitro): 20.0
isoTOP-ABPP ratio, lysine P17858_K715 ([2]; 100 uM_231_sol_in vitro): 1.8
SMILES: COC(=O)NC(=NC(=O)OCC1c2ccccc2-c2ccccc21)n1cccn1 [fragment 49, N-Methoxycarbonyl-N′-9-fluorenylmethoxycarbonyl-pyrazole-1-carboxamidine]

isoTOP-ABPP ratio, lysine Q9UHY7_K111 ([1]; 100 uM_231_sol_in vitro): 15.1
isoTOP-ABPP ratio, lysine P17858_K677 ([2]; 100 uM_231_sol_in vitro): 20.0
isoTOP-ABPP ratio, lysine P17858_K715 ([2]; 100 uM_231_sol_in vitro): 2.9
SMILES: CC(C)(C)OC(=O)N=C(NC(=O)OC(C)(C)C)n1cccn1 [fragment 50, reference compound]

isoTOP-ABPP ratio, lysine Q9UHY7_K111 ([1]; 50 uM_231_sol_in vitro): 0.9
isoTOP-ABPP ratio, lysine P17858_K677 ([2]; 50 uM_231_sol_in vitro): 0.9
isoTOP-ABPP ratio, lysine P17858_K715 ([2]; 50 uM_231_sol_in vitro): 0.9
SMILES: NC(=O)c1cc(C(F)(F)F)cc(C(F)(F)F)c1 [fragment 51, reference compound]
